Experiment: molar heat capacity at constant pressure
Conditions: 101.33 kPa, Crystal, Vacuum adiabatic calorimetry

O=C(CO)[C@H](O)[C@H](O)[C@H](O)CO [D-psicose]
Conditions	molar heat capacity at constant pressure [J/K/mol]
59.58 K	45.03
60 K	45.42
60.41 K	45.79
61.24 K	46.57
62.08 K	47.21
62.92 K	47.95
63.78 K	48.66
64.64 K	49.47
65.5 K	50.22
66.42 K	50.91
67.38 K	51.71
68.32 K	52.51
69.24 K	53.27
70 K	53.92
70.15 K	54.04
71.1 K	54.88
72.09 K	55.67
73.08 K	56.51
74.09 K	57.32
75.11 K	58.14
76.17 K	59.03
77.3 K	59.96
78.43 K	60.89
79.19 K	61.65
79.55 K	61.8
80 K	62.17
80.16 K	62.27
80.67 K	62.64
81.12 K	63.07
81.85 K	63.65
82.06 K	63.87
82.72 K	64.37
83.04 K	64.72
83.07 K	64.59
83.74 K	65.19
84.05 K	65.44
84.3 K	65.6
84.74 K	66.03
85.05 K	66.26
85.58 K	66.72
85.73 K	66.8
86.07 K	67.06
86.71 K	67.55
86.87 K	67.6
87.09 K	67.95
87.73 K	68.44
88.15 K	68.72
88.2 K	68.72
88.8 K	69.22
89.24 K	69.63
89.57 K	69.81
89.88 K	70.11
90 K	70.2
90.32 K	70.45
90.92 K	70.89
90.95 K	70.98
91.39 K	71.33
92.01 K	71.78
92.24 K	71.95
92.44 K	72.09
93.1 K	72.72
93.53 K	73.06
93.55 K	72.93
94.22 K	73.58
94.64 K	73.83
94.9 K	74.01
95.33 K	74.47
95.76 K	74.71
96.28 K	75.12
96.44 K	75.31
96.92 K	75.66
97.56 K	76.24
97.64 K	76.12
98.12 K	76.55
98.71 K	77.11
98.99 K	77.22
99.36 K	77.58
99.92 K	78.04
100 K	78.04
100.32 K	78.22
100.64 K	78.58
101.13 K	78.97
101.68 K	79.27
101.91 K	79.49
102.33 K	79.86
103.08 K	80.34
103.16 K	80.4
103.51 K	80.73
104.4 K	81.45
104.47 K	81.42
104.73 K	81.75
105.67 K	82.37
105.83 K	82.47
105.97 K	82.66
106.98 K	83.32
107.19 K	83.5
107.21 K	83.56
108.27 K	84.28
108.43 K	84.6
108.57 K	84.51
109.54 K	85.27
109.64 K	85.41
109.99 K	85.61
110 K	85.65
110.81 K	86.25
110.88 K	86.33
111.39 K	86.67
112.1 K	87.19
112.15 K	87.32
112.78 K	87.7
113.41 K	88.29
113.43 K	88.23
114.16 K	88.71
114.66 K	89.15
114.74 K	89.18
115.57 K	89.78
115.89 K	90.08
116.04 K	90.2
117.01 K	90.83
117.16 K	91.03
117.33 K	91.11
118.44 K	91.9
118.47 K	92.11
118.65 K	92.13
119.8 K	92.98
119.86 K	92.95
120 K	93.09
120.39 K	93.31
121.11 K	93.95
121.28 K	94.01
121.69 K	94.22
122.42 K	94.92
122.77 K	95.15

Reference: the NIST ThermoML archive (doi:10.1016/j.jct.2018.11.014)
